Activity calls are given as the source filed them. The rule behind the calls is not given here.
What was measured:
[1] = molecular target: T1, Tyrosyl-DNA phosphodiesterase 2 (Homo sapiens, UniProt O95551); assay: Inhibition of N-terminal His-tagged human TDP2 expressed in Escherichia coli BL21 using 4-nitrophenyl phenylphosphonate as substrate incubated for 60 mins by EDTA based chromogenic assay
T1 sequence (O95551 whole entry): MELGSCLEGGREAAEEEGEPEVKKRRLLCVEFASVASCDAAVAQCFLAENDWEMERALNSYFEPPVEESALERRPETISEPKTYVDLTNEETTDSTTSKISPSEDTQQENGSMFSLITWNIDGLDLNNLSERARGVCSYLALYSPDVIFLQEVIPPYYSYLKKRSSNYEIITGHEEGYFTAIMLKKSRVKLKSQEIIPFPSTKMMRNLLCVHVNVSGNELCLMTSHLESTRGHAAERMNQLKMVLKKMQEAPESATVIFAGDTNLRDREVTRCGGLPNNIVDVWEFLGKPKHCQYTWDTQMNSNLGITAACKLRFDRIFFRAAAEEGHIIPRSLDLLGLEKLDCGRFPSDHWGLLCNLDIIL

DU-145 [2] = assay: Cytotoxicity against human DU-145 cells assessed as cell growth inhibition for 72 hrs by MTT assay; assay type: functional
A549 = assay: Cytotoxicity against human A549 cells assessed as cell growth inhibition for 72 hrs by MTT assay; assay type: functional
DU-145 [3] = assay: Cytotoxicity against human DU-145 cells assessed as cell growth inhibition at 10 uM for 72 hrs by MTT assay; assay type: functional
[4] = Induction of reactive oxygen species production assessed as increase in hydrogen peroxide production […] in presence of DTT by redox cycling assay; assay type: functional

| IC50 [1] [µM] | Structure (SMILES) | GI50 (DU-145 [2]; Homo sapiens, DU-145, 72 h) [µM] | GI50 (A549; Homo sapiens, A549, 72 h) [µM] | GI50 (DU-145 [2]; 72 h) [µM] | GI50 (A549; 72 h) [µM] | inhibition at 10 µM (DU-145 [3]) [%] | Activity [4] |
| --- | --- | --- | --- | --- | --- | --- | --- |
| 25 | CC(C)[C@@H]1C2=C(Oc3c1c(OCCN1CCOCC1)cc1c3[C@@H](C(C)C)C3=C(O1)C(C)(C)C(=O)C(C)(C)C3=O)C(C)(C)C(=O)C(C)(C)C2=O | 27 | 39.6 | – | – | – | – |
| 55 | COc1c(C(=O)C(C)C)c2c(c3c1[C@@H](C(C)C)C1=C(O3)C(C)(C)C(=O)C(C)(C)C1=O)[C@H](C(C)C)C1=C(O2)C(C)(C)C(=O)C(C)(C)C1=O (racemic) | 13 | 31 | – | – | – | – |
| 56 | COc1ccc(COc2cc3c(c4c2[C@H](C(C)C)C2=C(O4)C(C)(C)C(=O)C(C)(C)C2=O)[C@@H](C(C)C)C2=C(O3)C(C)(C)C(=O)C(C)(C)C2=O)cc1 | 40 | 32 | – | – | – | – |
| 20 | CCN(CC)CCCOc1cc2c(c3c1[C@H](C(C)C)C1=C(O3)C(C)(C)C(=O)C(C)(C)C1=O)[C@@H](C(C)C)C1=C(O2)C(C)(C)C(=O)C(C)(C)C1=O | 25 | 85 | – | – | – | – |
| 57 | COc1c(C(=O)C(C)C)c2c(c3c1[C@@H](C(C)C)C1=C(O3)C(C)(C)C(=O)C(C)(C)C1=O)[C@@H](C(C)C)C1=C(O2)C(C)(C)C(=O)C(C)(C)C1=O (racemic) | 20 | 32 | – | – | – | – |
| 48 | CC(C)C(=O)c1c(O)c2c(c3c1OC1=C(C(=O)C(C)(C)C(=O)C1(C)C)[C@@H]3C(C)C)OC1=C(C(=O)C(C)(C)C(=O)C1(C)C)[C@@H]2C(C)C | – | – | 15 | 28 | – | – |
| 32 | CC(C)C(=O)c1c(O)c2c(c3c1OC1=C(C(=O)C(C)(C)C(=O)C1(C)C)[C@H]3C(C)C)OC1=C(C(=O)C(C)(C)C(=O)C1(C)C)[C@H]2C(C)C | 38 | 65 | – | – | – | – |
| 54 | CC(C)[C@@H]1C2=C(Oc3c1c(OCc1ccccc1)cc1c3[C@@H](C(C)C)C3=C(O1)C(C)(C)C(=O)C(C)(C)C3=O)C(C)(C)C(=O)C(C)(C)C2=O | 19 | 36 | – | – | – | – |
| – | COc1cc([C@@H]2c3cc4c(cc3[C@@H](O[C@@H]3O[C@@H]5CO[C@@H](C)O[C@H]5[C@H](O)[C@H]3O)[C@H]3COC(=O)[C@H]23)OCO4)cc(OC)c1O [ETOPOSIDE] | 13 | 10 | – | – | 47 | – |
| 29 | CC(C)C1C2=C(Oc3c1c(O)cc1c3C(C(C)C)C3=C(O1)C(C)(C)C(=O)C(C)(C)C3=O)C(C)(C)C(=O)C(C)(C)C2=O (racemic; form 1) | 13 | 26 | – | – | – | – |
| 28 | CC(C)Oc1cc2c(c3c1[C@H](C(C)C)C1=C(O3)C(C)(C)C(=O)C(C)(C)C1=O)[C@@H](C(C)C)C1=C(O2)C(C)(C)C(=O)C(C)(C)C1=O | 20 | 33 | – | – | – | – |
| 19 | CC(C)[C@@H]1C2=C(Oc3c1c(OCCCN1CCCC1)cc1c3[C@@H](C(C)C)C3=C(O1)C(C)(C)C(=O)C(C)(C)C3=O)C(C)(C)C(=O)C(C)(C)C2=O | 38 | 50 | – | – | – | – |
| 21 | CCOc1cc2c(c3c1[C@H](C(C)C)C1=C(O3)C(C)(C)C(=O)C(C)(C)C1=O)[C@@H](C(C)C)C1=C(O2)C(C)(C)C(=O)C(C)(C)C1=O | 12 | 24 | – | – | – | – |
| 20 | CC(C)[C@@H]1C2=C(Oc3c1c(OCCCN1CCN(C)CC1)cc1c3[C@@H](C(C)C)C3=C(O1)C(C)(C)C(=O)C(C)(C)C3=O)C(C)(C)C(=O)C(C)(C)C2=O | 51 | 63 | – | – | – | – |
| 50 | CC(C)C(=O)c1c(O)c2c(c3c1OC1=C(C(=O)C(C)(C)C(=O)C1(C)C)[C@H]3C(C)C)OC1=C(C(=O)C(C)(C)C(=O)C1(C)C)[C@@H]2C(C)C | – | – | 41 | 60 | – | – |
| 11 | CC(C)[C@@H]1C2=C(Oc3c1c(OCCN(C)C)cc1c3[C@@H](C(C)C)C3=C(O1)C(C)(C)C(=O)C(C)(C)C3=O)C(C)(C)C(=O)C(C)(C)C2=O | 22 | 54 | – | – | – | – |
| 41 | CCOC(CCCOc1cc2c(c3c1[C@H](C(C)C)C1=C(O3)C(C)(C)C(=O)C(C)(C)C1=O)[C@@H](C(C)C)C1=C(O2)C(C)(C)C(=O)C(C)(C)C1=O)OCC | 27 | 62 | – | – | – | – |
| 41 | CC(C)C(=O)c1c(O)c2c(c3c1OC1=C(C(=O)C(C)(C)C(=O)C1(C)C)[C@H]3C(C)C)OC1=C(C(=O)C(C)(C)C(=O)C1(C)C)[C@@H]2C(C)C (racemic) | – | – | 17 | 26 | – | – |
| 26 | CC(C)CCOc1cc2c(c3c1[C@H](C(C)C)C1=C(O3)C(C)(C)C(=O)C(C)(C)C1=O)[C@@H](C(C)C)C1=C(O2)C(C)(C)C(=O)C(C)(C)C1=O | 19 | 37 | – | – | – | – |

| IC50 [1] [µM] | Structure (SMILES) | GI50 (DU-145 [2]; Homo sapiens, DU-145, 72 h) [µM] | GI50 (A549; Homo sapiens, A549, 72 h) [µM] | GI50 (DU-145 [2]; 72 h) [µM] | GI50 (A549; 72 h) [µM] | inhibition at 10 µM (DU-145 [3]) [%] | Activity [4] |
| --- | --- | --- | --- | --- | --- | --- | --- |
| 25 | CC(C)[C@@H]1C2=C(Oc3c1c(O)cc1c3[C@@H](C(C)C)C3=C(O1)C(C)(C)C(=O)C(C)(C)C3=O)C(C)(C)C(=O)C(C)(C)C2=O | 23 | 27 | – | – | – | – |
| 39 | CC(C)C(=O)c1c(O)c2c(c3c1OC1=C(C(=O)C(C)(C)C(=O)C1(C)C)[C@@H]3C(C)C)OC1=C(C(=O)C(C)(C)C(=O)C1(C)C)[C@H]2C(C)C | 31 | 62 | – | – | – | – |
| 17 | CC(C)[C@@H]1C2=C(Oc3c1c(OCCC1OCCO1)cc1c3[C@@H](C(C)C)C3=C(O1)C(C)(C)C(=O)C(C)(C)C3=O)C(C)(C)C(=O)C(C)(C)C2=O | 12 | 21 | – | – | – | – |
| 32 | CC(C)[C@H]1C2=C(Oc3c1c(O)cc1c3[C@@H](C(C)C)C3=C(O1)C(C)(C)C(=O)C(C)(C)C3=O)C(C)(C)C(=O)C(C)(C)C2=O | 16 | 38 | – | – | – | – |
| 20 | CC(C)[C@@H]1C2=C(Oc3c1c(OCCCN1CCOCC1)cc1c3[C@@H](C(C)C)C3=C(O1)C(C)(C)C(=O)C(C)(C)C3=O)C(C)(C)C(=O)C(C)(C)C2=O | 26 | 65.7 | – | – | – | – |
| 53 | CCN(CC)CCOc1cc2c(c3c1[C@H](C(C)C)C1=C(O3)C(C)(C)C(=O)C(C)(C)C1=O)[C@@H](C(C)C)C1=C(O2)C(C)(C)C(=O)C(C)(C)C1=O | 23 | 46 | – | – | – | – |
| 42 | CC(C)[C@@H]1C2=C(Oc3c1c(OCC1CC1)cc1c3[C@@H](C(C)C)C3=C(O1)C(C)(C)C(=O)C(C)(C)C3=O)C(C)(C)C(=O)C(C)(C)C2=O | 13 | 24 | – | – | – | – |
| > 100 | COc1cc(O)c2c(c1C(=O)C(C)C)OC1=C(C(=O)C(C)(C)C(=O)C1(C)C)[C@@H]2C(C)C | 28 | 50 | – | – | – | – |
| 12 | CC(COc1cc2c(c3c1[C@H](C(C)C)C1=C(O3)C(C)(C)C(=O)C(C)(C)C1=O)[C@@H](C(C)C)C1=C(O2)C(C)(C)C(=O)C(C)(C)C1=O)CN(C)C (some centres not stated) | 28 | 46 | – | – | – | – |
| 31 | Cc1ccc(COc2cc3c(c4c2[C@H](C(C)C)C2=C(O4)C(C)(C)C(=O)C(C)(C)C2=O)[C@@H](C(C)C)C2=C(O3)C(C)(C)C(=O)C(C)(C)C2=O)cc1 | 15 | 29 | – | – | – | – |
| 34 | CC(C)[C@@H]1C2=C(Oc3cc(O)c4c(c31)OC1=C(C(=O)C(C)(C)C(=O)C1(C)C)[C@@H]4C(C)C)C(C)(C)C(=O)C(C)(C)C2=O | 28 | 32 | – | – | – | – |
| 36 | CC(C)[C@@H]1C2=C(Oc3c1c(O)cc1c3[C@H](C(C)C)C3=C(O1)C(C)(C)C(=O)C(C)(C)C3=O)C(C)(C)C(=O)C(C)(C)C2=O | 26 | 56 | – | – | – | – |
| – | CC1(C)CCC2=C(O1)c1ccccc1C(=O)C2=O | – | – | – | – | – | Active |
| 22 | CC(C)[C@@H]1C2=C(Oc3c1c(OCCN1CCCC1)cc1c3[C@@H](C(C)C)C3=C(O1)C(C)(C)C(=O)C(C)(C)C3=O)C(C)(C)C(=O)C(C)(C)C2=O | 22 | 46 | – | – | – | – |
| > 100 | COc1cc(O)c2c(c1C(=O)C(C)C)OC1=C(C(=O)C(C)(C)C(=O)C1(C)C)[C@H]2C(C)C | 16 | 30 | – | – | – | – |
| 33 | CC(C)C(=O)c1c(O)c2c(c3c1OC1=C(C(=O)C(C)(C)C(=O)C1(C)C)[C@@H]3C(C)C)OC1=C(C(=O)C(C)(C)C(=O)C1(C)C)[C@@H]2C(C)C (racemic) | 26 | 37 | – | – | – | – |
| 32 | CC(C)C1C2=C(Oc3c1c(O)cc1c3C(C(C)C)C3=C(O1)C(C)(C)C(=O)C(C)(C)C3=O)C(C)(C)C(=O)C(C)(C)C2=O (racemic; form 2) | – | – | 15 | 44 | – | – |
| 26 | CC(C)[C@@H]1C2=C(Oc3c1c(OCCCc1ccccc1)cc1c3[C@@H](C(C)C)C3=C(O1)C(C)(C)C(=O)C(C)(C)C3=O)C(C)(C)C(=O)C(C)(C)C2=O | 29 | 43 | – | – | – | – |
| 10 | CC(C)[C@@H]1C2=C(Oc3c1c(OCCCN(C)C)cc1c3[C@@H](C(C)C)C3=C(O1)C(C)(C)C(=O)C(C)(C)C3=O)C(C)(C)C(=O)C(C)(C)C2=O | 23 | 46 | – | – | – | – |
